Experimental data published in patent US9000022B2 (Exelixis Patent Company LLC, priority 2005, dated 2015).

The molecules below were run on LXRα and/or LXRβ (assay: Co-transfection assay (LXRE luciferase reporter, CV-1 cells)). Details: tested as described in Example 33; IC50 or EC50 for LXRα and/or LXRβ, isoform not specified; read-out: activity (IC50 or EC50 for LXR).
Format: cell-based, human
Procedure, shortened: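 CV-1 cells transiently co-transfected with full-length human LXRα or LXRβ plus RXRα, an LXRE×1-Tk-luciferase reporter and a β-galactosidase control. Compounds incubated 20 h at 37 °C (≤1% DMSO; screen at 10 μM final); luciferase read after lysis. EC50/IC50 from 8-point half-log curves (4 wells per point, ≥3 experiments); efficacy relative to a reference agonist high control and DMSO.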

Row | SMILES | IC50 or EC50 (potency, activation or inhibition) [µM]
1 | CC(C)(O)c1cn(-c2ccc(-c3ccc(CO)cc3)cc2)c(-c2cccc(Cl)c2Cl)n1 [Example 475, 2-(2-(2,3-dichlorophenyl)-1-(4′-(hydroxymethyl)biphenyl-4-yl)-1H-imidazol-4-yl)propan-2-ol] | 1 to 10
2 | CC(C)(O)c1cn(-c2ccc(-c3cccc(CO)c3)cc2)c(-c2cccc(Cl)c2Cl)n1 [Example 476, 2-(2-(2,3-dichlorophenyl)-1-(3′-(hydroxymethyl)biphenyl-4-yl)-1H-imidazol-4-yl)propan-2-ol] | 1 to 10
3 | CC(C)(O)c1ccc(-c2ccc(-n3cc(C(C)(C)O)nc3-c3cccc(Cl)c3Cl)cc2)cc1 [Example 477, 2-(2-(2,3-dichlorophenyl)-1-(4′-(2-hydroxypropan-2-yl)biphenyl-4-yl)-1H-imidazol-4-yl)propan-2-ol] | 1 to 10
4 | CC(C)(CO)c1cn(-c2ccc(-c3cccc(S(C)(=O)=O)c3)cc2)c(-c2c(Cl)cccc2Cl)n1 [Example 479, 2-(2-(2,6-dichlorophenyl)-1-(3′-(methylsulfonyl)biphenyl-4-yl)-1H-imidazol-4-yl)-2-methylpropan-1-ol] | < 1
5 | CC(C)(CO)NC(=O)c1cn(-c2ccc(-c3cccc(C(C)(C)O)c3)cc2Cl)c(-c2c(Cl)cccc2Cl)n1 [Example 480, 1-(3-chloro-3′-(2-hydroxypropan-2-yl)biphenyl-4-yl)-2-(2,6-dichlorophenyl)-N-(1-hydroxy-2-methylpropan-2-yl)-1H-imidazole-4-carboxamide] | < 1
6 | CC(C)(CO)NC(=O)c1cn(-c2ccc(-c3cccc(S(C)(=O)=O)c3)cc2)c(-c2c(Cl)cccc2Cl)n1 [Example 481, 2-(2,6-dichlorophenyl)-N-(1-hydroxy-2-methylpropan-2-yl)-1-(3′-(methylsulfonyl)biphenyl-4-yl)-1H-imidazole-4-carboxamide] | < 1
7 | CCS(=O)(=O)c1cccc(-c2ccc(-n3cc(C(C)(C)O)nc3Cc3cc(Cl)ccc3F)cc2)c1 [Example 482, 2-(2-(5-chloro-2-fluorobenzyl)-1-(3′-(ethylsulfonyl)biphenyl-4-yl)-1H-imidazol-4-yl)propan-2-ol] | < 1
